# Where a name gives a salt, the structure may show the parent alone. Read-outs that look alike come from different tables or passages of the source.
# System: TNFα secretion in white blood cells from human buffy coat stimulated with phorbol 12-myristate 13-acetate and ionomycin
# Assay: TNFα secretion assay
# Conditions: for inhibition at 0.5 µM / inhibition at 1 µM / inhibition at 16 µM / inhibition at 31 µM: Homo sapiens
# Experimental: Drugs were added to the indicated concentration. […] The plate was then washed again with 0.1% Tween 20/PBS. An HRP-luminescent substrate was added to each well, and the light intensity of each well was measured using a plate luminometer.
compound,measurement,setting,value
"C[C@]12C=CC(=O)C=C1CC[C@@H]1[C@@H]2[C@@H](O)C[C@@]2(C)[C@H]1CC[C@]2(O)C(=O)CO [Prednisolone, prednisolone]",inhibition at 0.5 µM,"read-out: % inhibition of TNFα secretion, Prednisolone 0.5 μM, Tripelennamine HCl μM r5-r13: 0,0.31,0.61,1.2,2.4,4.9,9.8,20,39",35%
same,inhibition at 1 µM,"read-out: % inhibition of TNFα secretion, Prednisolone 1 μM, Tripelennamine HCl μM r5-r13: 0,0.31,0.61,1.2,2.4,4.9,9.8,20,39",40%
same,inhibition at 0.5 µM,"read-out: inhibition of TNFα secretion, prednisolone 0.5 μM, azatadine maleate r5-r13: 0,0.27,0.54,1.1,2.1,4.3,8.6,17,34 μM",35%
same,inhibition at 0.5 µM,"read-out: inhibition of TNFα secretion, prednisolone 0.5 μM, bromodiphenhydramine HCl r5-r13: 0,0.21,0.43,0.85,1.7,3.4,6.8,14,27 μM",34%
same,inhibition at 0.5 µM,"read-out: inhibition of TNFα secretion, prednisolone 0.5 μM, chlorpheniramine maleate r5-r13: 0,0.2,0.4,0.8,1.6,3.2,6.4,13,26 μM",28%
same,inhibition at 0.5 µM,"read-out: inhibition of TNFα secretion, prednisolone 0.5 μM, clemizole HCl r5-r13: 0,0.22,0.43,0.86,1.7,3.5,6.9,14,28 μM",37%
same,inhibition at 0.5 µM,"read-out: inhibition of TNFα secretion, prednisolone 0.5 μM, doxylamine succinate r5-r13: 0,0.2,0.4,0.8,1.6,3.2,6.4,13,26 μM",32%
same,inhibition at 0.5 µM,"read-out: inhibition of TNFα secretion, prednisolone 0.5 μM, fexofenadine HCl r5-r13: 0,0.073,0.15,0.29,0.58,1.2,2.3,4.6,9.3 μM",45%
same,inhibition at 0.5 µM,"read-out: inhibition of TNFα secretion, prednisolone 0.5 μM, loratadine r5-r13: 0,0.2,0.41,0.82,1.6,3.3,6.5,13,26 μM",29%
same,inhibition at 0.5 µM,"read-out: inhibition of TNFα secretion, prednisolone 0.5 μM, meclizine HCl r5-r13: 0,0.32,0.63,1.3,2.5,5.1,10,20,41 μM",36%
same,inhibition at 0.5 µM,"read-out: inhibition of TNFα secretion, prednisolone 0.5 μM, promethazine HCl r5-r13: 0,0.24,0.49,0.97,1.9,3.9,7.8,16,31 μM",32%
same,inhibition at 0.5 µM,"read-out: inhibition of TNFα secretion, prednisolone 0.5 μM, pyrilamine maleate r5-r13: 0,0.19,0.38,0.76,1.5,3,6.1,12,24 μM",24%
same,inhibition at 1 µM,"read-out: inhibition of TNFα secretion, prednisolone 1 μM, azatadine maleate r5-r13: 0,0.27,0.54,1.1,2.1,4.3,8.6,17,34 μM",43%
same,inhibition at 1 µM,"read-out: inhibition of TNFα secretion, prednisolone 1 μM, bromodiphenhydramine HCl r5-r13: 0,0.21,0.43,0.85,1.7,3.4,6.8,14,27 μM",37%
same,inhibition at 1 µM,"read-out: inhibition of TNFα secretion, prednisolone 1 μM, cetrizine HCl r5-r13: 0,0.2,0.4,0.8,1.6,3.2,6.4,13,26 μM",40%
same,inhibition at 1 µM,"read-out: inhibition of TNFα secretion, prednisolone 1 μM, chlorpheniramine maleate r5-r13: 0,0.2,0.4,0.8,1.6,3.2,6.4,13,26 μM",39%
same,inhibition at 1 µM,"read-out: inhibition of TNFα secretion, prednisolone 1 μM, clemizole HCl r5-r13: 0,0.22,0.43,0.86,1.7,3.5,6.9,14,28 μM",40%
same,inhibition at 1 µM,"read-out: inhibition of TNFα secretion, prednisolone 1 μM, cyproheptadine HCl r5-r13: 0,0.24,0.48,0.96,1.9,3.9,7.7,15,31 μM",39%
same,inhibition at 1 µM,"read-out: inhibition of TNFα secretion, prednisolone 1 μM, doxylamine succinate r5-r13: 0,0.2,0.4,0.8,1.6,3.2,6.4,13,26 μM",35%
same,inhibition at 1 µM,"read-out: inhibition of TNFα secretion, prednisolone 1 μM, fexofenadine HCl r5-r13: 0,0.073,0.15,0.29,0.58,1.2,2.3,4.6,9.3 μM",45%
same,inhibition at 1 µM,"read-out: inhibition of TNFα secretion, prednisolone 1 μM, loratadine r5-r13: 0,0.2,0.41,0.82,1.6,3.3,6.5,13,26 μM",40%
same,inhibition at 1 µM,"read-out: inhibition of TNFα secretion, prednisolone 1 μM, meclizine HCl r5-r13: 0,0.32,0.63,1.3,2.5,5.1,10,20,41 μM",44%
same,inhibition at 1 µM,"read-out: inhibition of TNFα secretion, prednisolone 1 μM, promethazine HCl r5-r13: 0,0.24,0.49,0.97,1.9,3.9,7.8,16,31 μM",39%
same,inhibition at 1 µM,"read-out: inhibition of TNFα secretion, prednisolone 1 μM, pyrilamine maleate r5-r13: 0,0.19,0.38,0.76,1.5,3,6.1,12,24 μM",31%
same,inhibition at 1 µM,"read-out: inhibition of TNFα secretion, prednisolone 1 μM, thiethylperazine maleate r5-r13: 0,0.2,0.39,0.78,1.6,3.1,6.3,13,25 μM",39%
same,inhibition at 0.5 µM,"read-out: percent inhibition of TNFα secretion, Prednisolone 0.5 μM, Bromodiphenhydramine HCl μM r5-r13: 0,0.21,0.43,0.85,1.7,3.4,6.8,14,27",34%
same,inhibition at 0.5 µM,"read-out: percent inhibition of TNFα secretion, Prednisolone 0.5 μM, Clemizole μM r5-r13: 0,0.22,0.43,0.86,1.7,3.5,6.9,14,28",37%
same,inhibition at 0.5 µM,"read-out: percent inhibition of TNFα secretion, Prednisolone 0.5 μM, Loratadine μM r5-r13: 0,0.2,0.41,0.82,1.6,3.3,6.5,13,26",29%
same,inhibition at 0.5 µM,"read-out: percent inhibition of TNFα secretion, Prednisolone 0.5 μM, Promethazine HCl μM r5-r13: 0,0.24,0.49,0.97,1.9,3.9,7.8,16,31",32%
same,inhibition at 1 µM,"read-out: percent inhibition of TNFα secretion, Prednisolone 1 μM, Bromodiphenhydramine HCl μM r5-r13: 0,0.21,0.43,0.85,1.7,3.4,6.8,14,27",37%
same,inhibition at 1 µM,"read-out: percent inhibition of TNFα secretion, Prednisolone 1 μM, Clemizole μM r5-r13: 0,0.22,0.43,0.86,1.7,3.5,6.9,14,28",40%
same,inhibition at 1 µM,"read-out: percent inhibition of TNFα secretion, Prednisolone 1 μM, Cyproheptadine μM r5-r13: 0,0.24,0.48,0.96,1.9,3.9,7.7,15,31",39%
same,inhibition at 1 µM,"read-out: percent inhibition of TNFα secretion, Prednisolone 1 μM, Loratadine μM r5-r13: 0,0.2,0.41,0.82,1.6,3.3,6.5,13,26",40%
same,inhibition at 1 µM,"read-out: percent inhibition of TNFα secretion, Prednisolone 1 μM, Promethazine HCl μM r5-r13: 0,0.24,0.49,0.97,1.9,3.9,7.8,16,31",39%
same,inhibition at 1 µM,"read-out: percent inhibition of TNFα secretion, Prednisolone 1 μM, Thiethylperazine μM r5-r13: 0,0.2,0.39,0.78,1.6,3.1,6.3,13,25",39%
"CC(CN1c2ccccc2Sc2ccccc21)N(C)C (stereo not drawn) [Promethazine HCl, promethazine]",inhibition at 16 µM,"read-out: percent inhibition (dose matrix), Table 99, Promethazine HCl 16 μM, Amoxapine 0-25 μM",30.4%
same,inhibition at 31 µM,"read-out: percent inhibition (dose matrix), Table 99, Promethazine HCl 31 μM, Amoxapine 0-25 μM",80.5%
same,inhibition at 16 µM,"read-out: percent inhibition (dose matrix), Table 100, Promethazine HCl 16 μM, Fluoxetine HCl 0-29 μM",30.8%
same,inhibition at 31 µM,"read-out: percent inhibition (dose matrix), Table 100, Promethazine HCl 31 μM, Fluoxetine HCl 0-29 μM",69.5%
same,inhibition at 16 µM,"read-out: percent inhibition (dose matrix), Table 101, Promethazine HCl 16 μM, NOrtriptyline HCl 0-33 μM per row (c1)",31%
same,inhibition at 31 µM,"read-out: percent inhibition (dose matrix), Table 101, Promethazine HCl 31 μM, NOrtriptyline HCl 0-33 μM per row (c1)",69.4%
same,inhibition at 16 µM,"read-out: percent inhibition (dose matrix), Table 102, Promethazine HCl 16 μM, Paroxetine HCl 0-27 μM per row (c1)",36.7%
same,inhibition at 31 µM,"read-out: percent inhibition (dose matrix), Table 102, Promethazine HCl 31 μM, Paroxetine HCl 0-27 μM per row (c1)",78.8%
same,inhibition at 16 µM,"read-out: percent inhibition (dose matrix), Table 105, Promethazine HCl 16 μM, Fluoxetine HCl 0-29 μM",22%
same,inhibition at 31 µM,"read-out: percent inhibition (dose matrix), Table 105, Promethazine HCl 31 μM, Fluoxetine HCl 0-29 μM",62.3%
same,inhibition at 16 µM,"read-out: percent inhibition of TNFα secretion, Promethazine HCl 16 μM, Amoxapine μM r5-r13: 0,0.2,0.4,0.8,1.6,3.2,6.4,13,25",60.4%
same,inhibition at 16 µM,"read-out: percent inhibition of TNFα secretion, Promethazine HCl 16 μM, Desipramine HCl: 0/0.25/0.5/1/2/4/8/16/32 μM",42.8%
same,inhibition at 16 µM,"read-out: percent inhibition of TNFα secretion, Promethazine HCl 16 μM, Fluoxetine HCl μM r5-r13: 0,0.23,0.45,0.9,1.8,3.6,7.2,14,29",65.3%
same,inhibition at 16 µM,"read-out: percent inhibition of TNFα secretion, Promethazine HCl 16 μM, Paroxetine HCl μM by row r5-r13: 0/0.21/0.42/0.83/1.7/3.3/6.7/13/27",57.1%
same,inhibition at 16 µM,"read-out: percent inhibition of TNFα secretion, Promethazine HCl 16 μM, Sertraline HCl by grid row r5-r13: 0/0.25/0.5/1/2/4/7.9/16/32 μM",40%
same,inhibition at 31 µM,"read-out: percent inhibition of TNFα secretion, Promethazine HCl 31 μM, Amoxapine μM r5-r13: 0,0.2,0.4,0.8,1.6,3.2,6.4,13,25",85.4%
same,inhibition at 31 µM,"read-out: percent inhibition of TNFα secretion, Promethazine HCl 31 μM, Desipramine HCl: 0/0.25/0.5/1/2/4/8/16/32 μM",75.7%
same,inhibition at 31 µM,"read-out: percent inhibition of TNFα secretion, Promethazine HCl 31 μM, Fluoxetine HCl μM r5-r13: 0,0.23,0.45,0.9,1.8,3.6,7.2,14,29",87%
same,inhibition at 31 µM,"read-out: percent inhibition of TNFα secretion, Promethazine HCl 31 μM, Paroxetine HCl μM by row r5-r13: 0/0.21/0.42/0.83/1.7/3.3/6.7/13/27",84.2%
same,inhibition at 31 µM,"read-out: percent inhibition of TNFα secretion, Promethazine HCl 31 μM, Sertraline HCl by grid row r5-r13: 0/0.25/0.5/1/2/4/7.9/16/32 μM",72.1%
same,inhibition of TNFα secretion,"prednisolone 1 μM, promethazine HCl r5-r13: 0,0.24,0.49,0.97,1.9,3.9,7.8,16,31 μM",38
COc1ccc(CN(CCN(C)C)c2ccccn2)cc1 [Pyrilamine Maleate],inhibition of TNFα secretion,"prednisolone […], pyrilamine maleate r5-r13: 0,0.19,0.38,0.76,1.5,3,6.1,12,24 μM",20

# From US20050192261A1, “Methods and reagents for the treatment of immunoinflammatory disorders” (priority 2003, published 2005)
